# Where two headings read alike, the source gives them in different places.
# Tests used:
# [1] = octanol/water partition, shake-flask method; assay type: physicochemical
# Experimental: To quantify the hydrophobicity of the platinum complexes, partition coefficients (log P) values for octanol/water partition were measured using the shake-flask method.
# [2] = system: MCF-7 cells; assay: MTT cytotoxicity assay, MCF-7; assay type: cell-based, human; conditions: for times more effective/potent than cisplatin: MCF-7; for IC50: MCF-7, 72 h exposure, MTT, read-out: IC50 (median growth inhibitory concentration)
# Experimental: (§1) Cisplatin (CDDP) and oxaliplatin (OXP) were dissolved just before the experiment in a 0.9% NaCl solution.
# (§2) Human prostate adenocarcinoma (PC3) cells were obtained from European Collection of Cell Cultures (ECACC, Salisbury, UK). Human ovarian cancer cell lines A2780 and its cisplatin resistant variant, A2780cisR, were kindly provided by Prof.
# (§3) Triplicate cultures were established for each treatment.
# [3] = system: A375 cells; assay: MTT cytotoxicity assay, A375; assay type: cell-based, human
# Experimental: (§4) Cisplatin (CDDP) and oxaliplatin (OXP) were dissolved just before the experiment in a 0.9% NaCl solution. […]
# (§5) Cancer Res. 1988, 48, 589-601]. […] Triplicate cultures were established for each treatment.
# (§6) MTT assay. […] Triplicate cultures were established for each treatment.
# (§7) The two dimers, 3a and 3b, as well as compounds 1a and 2a were screened against six human cancer cell lines representative of lung (H157), colon (HCT-15), cervical (A431), ovarian (2008) and pancreatic (PSN1) cancers, along with melanoma (A375). Cytotoxicity was evaluated by means of the MTT test after 72 h of treatment and the in vitro antitumor potential of newly synthesized derivatives was compared to that of the reference metallo-drugs CDDP and OXP.
# [4] = system: MCF-7 cells; assay: Nuclear DNA fragmentation ELISA, MCF-7; assay type: cell-based, human; conditions: MCF-7, 24 h, IC50 concentrations
# Excerpt: FIGS. 4A-4C describe: FIG. 4A—Nuclear DNA fragmentation. […] Quantitative estimation of DNA fragmentation was obtained with an ELISA test. Data are the means of five independent experiments. Error bars indicate SD. […] FIG. 4C—Caspase activity. […] Data are the means of at least three independent experiments. Error bars indicate SD.
# To gain more insights into the mode of action of newly synthesized Pt(IV) derivatives, compounds 1 and 6 were chosen for further experiments. In particular, their capacity to induce apoptosis against human breast MCF-7 cells treated with equitoxic concentrations (IC50 values) of these drugs was evaluated and compared. Nuclear DNA fragmentation and apoptosome complex formation are critical steps in the apoptotic process. […] Apoptotic cell death induction was confirmed through a Hoechst 33342 staining.
# [5] = system: A549 cells; assay: MTT cytotoxicity assay, A549; assay type: cell-based, human; conditions: for IC50: A549, 72 h exposure, MTT, read-out: IC50 (median growth inhibitory concentration)
# Experimental: as §1, §2, §3
# [6] = system: Histone deacetylase (HDAC); assay: Histone deacetylase assay (Fluor-de-Lys) in MCF-7 cells; assay type: cell-based, human; conditions: for IC50 for cellular inhibition of HDAC activity (in words): increasing concentrations; for inhibition of HDAC activity: MCF-7, 24 h incubation with IC50 concentrations
# Experimental: Histone deacetylase activity was determined using Fluor-de-Lys® HDAC fluorometric activity assay kit (Enzo Life Sciences International, Inc., Plymount Meeting, Pa., U.S.A.). […] Fluorescence was measured using a Fluoroskan Ascent FL (Labsystem, Finland) plate reader, with excitation at 360 nm and emission at 460 nm. For comparison purpose, the HDAC activity was also measured in nuclear extracts of MCF-7-treated cells by means of the same fluorometric activity assay kit. In this latter case, MCF-7 nuclear extracts were obtained as follow: cell pellets were re-suspended in lysis buffer [Tris.HCl (10 mM, pH 8.0), KCl (60 mM), EDTA (1.2 mM), DTT (1 mM), PMSF (0.05 mM), NP-40 (0.05%)] and kept on ice for 10 min. Subsequently, samples were centrifuged at 1000 g and re-suspended in the nuclear extraction buffer [Tris.HCl (20 mM, (pH 8.0), NaCl (420 mM), MgCl2 (0.7 mM), EDTA (0.25 mM), glycerol (25%)] for 30 min at 4° C., and then centrifuged at 15000 g for 15 min at 4° C.
# The complexes described here were specifically designed to release either VPA of PhB inside the cells in the hope that they will inhibit HDAC activity paving the way for more efficient DNA platination. Thus, in addition to measuring the levels of DNA platination, we also measured the ability of these pro-drugs to inhibit HDAC activity in cells. […] For comparison purposes, the HDAC inhibitory effect determined by tested complexes was also assayed in isolated nuclei of MCF-7 treated cells (FIG. 3B).
# The HDAC activity was determined by the Fluor de Lys® Fluorescent Cellular Activity Assay (Enzo Life Sciences).
# Also, MCF-7 cells were incubated for 24 h with increasing concentrations of compounds I-VIII and their HDAC activity was determined. The IC50 values for the inhibition of HDAC activity in the cells are depicted in FIG. 3C.
# [7] = system: A2780 cells; assay: MTT cytotoxicity assay, A2780; assay type: cell-based, human; conditions: for IC50: A2780, 72 h exposure, MTT, read-out: IC50 (median growth inhibitory concentration)
# Experimental: (§8) Platinum(IV) complexes were dissolved in DMSO to stock solutions of 1 mg/mL just before the experiment, and a calculated amount of drug solution was added to the cell growth medium to a final solvent concentration of 0.5%, which had no discernible effect on cell killing. Cisplatin (CDDP) and oxaliplatin (OXP) were dissolved just before the experiment in a 0.9% NaCl solution.
# as §2, §5
# [8] = system: Lewis lung carcinoma (LLC); assay: In vivo efficacy study, Lewis lung carcinoma mouse model; design: species or system C57BL mice
# Experimental: A preliminary in vivo efficacy study was carried out on a mouse model (see Table 3 below):
# Lewis lung carcinoma (LLC) was implanted i.m. (2·10^6 cells inoculum) into the right hind leg of 8-week old inbred C57BL mice (24±3 g body weight). Chemotherapy was delayed until the tumor became visible (day 7).
# [9] = system: PC3 cells; assay: MTT cytotoxicity assay, PC3; assay type: cell-based, human; conditions: PC3, 72 h exposure, read-out: IC50 (median growth inhibitory concentration)
# Experimental: as §1, §2, §3
# [10] = system: nine cancer cell lines; assay: MTT cytotoxicity, over the nine cancer cell lines; conditions: for average fold more potent than cisplatin: average over cell lines
# [11] = system: A2780cisR cells; assay: MTT cytotoxicity assay, A2780cisR (cisplatin resistant); assay type: cell-based, human; conditions: for IC50: 72 h exposure, MTT, read-out: IC50 (median growth inhibitory concentration)
# Experimental: as §8, §2, §5
# [12] = system: A498 cells; assay: MTT cytotoxicity assay, A498; assay type: cell-based, human; conditions: A498, 72 h exposure, read-out: IC50 (median growth inhibitory concentration)
# Experimental: as §8, §2, §5
# [13] = system: HCT-15 cells; assay: MTT cytotoxicity assay, HCT-15; assay type: cell-based, human
# Experimental: as §4, §5, §6, §7
# [14] = system: BxPC3 cells; assay: MTT cytotoxicity assay, BxPC3; assay type: cell-based, human; conditions: for times more effective/potent than cisplatin: BxPC3; for IC50: BxPC3, 72 h exposure, MTT, read-out: IC50 (median growth inhibitory concentration)
# [15] = system: HCT-15 spheroids; assay: 3D spheroid APH assay, HCT-15; assay type: cell-based, human; conditions: HCT-15 spheroids, 72 h, APH test
# Excerpt: (§9) Acid phosphatase (APH) assay. A modified APH assay, which is based on quantification of cytosolic acid phosphatase activity, was used for determining cell viability in spheroids. […] Triplicate cultures were established for each treatment. […] Evaluation was based on means from at least four independent experiments.
# (§10) In order to improve the predictive capacity of the in vitro assays, we tested the activity in three three-dimensional (3D) cell cultures; human colon cancer cells, HCT-15, and human pancreatic cancer cells, KRAS wild type BxPC3 cells KRAS mutated PSN-1 cells. The cancer spheroids were treated with 3a and 3b for 72 h and the cell viability was assessed by means of the APH assay (Table 6). For comparison purposes, the cytotoxicities of CDDP and OXP were evaluated under the same experimental conditions.
# [16] = system: BxPC3 spheroids; assay: 3D spheroid APH assay, BxPC3; assay type: cell-based, human; conditions: 72 h, APH test
# Excerpt: as §9, §10
# [17] = system: A431 cells; assay: MTT cytotoxicity assay, A431; assay type: cell-based, human; conditions: A431, 72 h
# Experimental: as §6, §7
# [18] = system: PSN-1 spheroids; assay: 3D spheroid APH assay, PSN-1; assay type: cell-based, human; conditions: PSN-1 spheroids, 72 h, APH test
# Excerpt: as §9, §10
# [19] = system: PSN1 cells; assay: MTT cytotoxicity assay, PSN1; assay type: cell-based, human; conditions: PSN1, 72 h, MTT
# Experimental: as §6, §7
# [20] = system: 2008 cells; assay: MTT cytotoxicity assay, 2008; assay type: cell-based, human; conditions: 2008, 72 h, MTT
# Experimental: as §6, §7
# [21] = system: H157 cells; assay: MTT cytotoxicity assay, H157; assay type: cell-based, human; conditions: H157, 72 h
# Experimental: as §6, §7
# [22] = A375, 72 h exposure, MTT (Table 1), read-out: IC50 (median growth inhibitory concentration)
# [23] = read-out: average IC50 values for the nine cancer cell lines, mean over nine cell lines, 72 h MTT
# [24] = HCT-15, 72 h exposure, MTT (Table 1), read-out: IC50 (median growth inhibitory concentration)
# [25] = daily dose 20 mg kg^-1 orally, day 7-14, LLC in C57BL mice
Compound,times more effective/potent than cisplatin [2],IC50 [2],"IC50 [3, 22]",times higher induction of nucleosome formation compared with cisplatin [4],IC50 [5],"IC50 for cellular inhibition of HDAC activity (in words) ([6]; MCF-7, 24 h)",inhibition of HDAC activity [6],IC50 [7],IC50 [9],"IC50 [10, 23]",IC50 ([11]; A2780cisR),IC50 [12],"IC50 [13, 24]",times more effective/potent than cisplatin [14],IC50 [14],further results
"[NH2][Pt]([NH2])([Cl])([Cl])([O]C(=O)CCCc1ccccc1)[O]C(=O)CCCc1ccccc1 [Compound VI, ctc-[Pt(NH3)2(C10H11O2)2Cl2]]",~100 fold,180 ± 30 nM,0.16 ± 0.02 µM,2 fold,170 ± 40 nM,highest inhibitory effect,approximately 70%,140 nM,410 ± 60 nM,230 nM,120 nM,430 ± 20 nM,0.31 ± 0.04 µM,~60 fold,190 ± 10 nM,"Log P [1]: −0.73 ± 0.05; fold more potent than cisplatin ([5]; A549): ~50 fold; in vivo efficacy by oral administration (in words) ([8]; oral vs cisplatin ip): nearly as effective in this model as cisplatin; average fold more potent than cisplatin ([10]; listed as Ctc-[Pt(NH3)2(PhB)2Cl2]): 50 fold; average fold more potent than cisplatin ([10]; listed as ctc-[Pt(NH3)2(PhB)2Cl2]): about 24 fold; fold improvement in potency on replacing both VPA ligands with PhB (VI vs I) ([10]; on the average): ~5 fold; fold more potent than the mono-PhB monoacetate complex ([10]; range over cell lines): 4.6-53 fold; IC50 ([10]; read-out: range of IC50 values over the cell lines, lowest-highest over nine cell lines): 120 to 430 nM"
"O=C1[O][Pt]2([NH][C@@H]3CCCC[C@H]3[NH]2)[O]C1=O [OXP, oxaliplatin, reference compound]",–,3360 ± 200 nM,6.3 ± 1.11 µM,–,1460 ± 310 nM,–,–,520 ± 270 nM,5240 ± 860 nM,4900 nM,4200 ± 1600 nM,7940 ± 1040 nM,1.15 ± 0.43 µM,–,4150 ± 930 nM,"IC50 ([3]; A375, 72 h, MTT (Table 5), read-out: IC50 (μM) ± S.D.): 6.3 ± 2.01 µM; IC50 [15]: 36.5 ± 3.12 µM; effect on HDAC activity (in words) ([6]; MCF-7, 24 h, IC50 concentrations): not effective in modifying HDAC activity; IC50 [16]: 75.2 ± 6.91 µM; IC50 [17]: 3.06 ± 0.88 µM; IC50 [18]: 59.7 ± 8.52 µM; IC50 [19]: 8.25 ± 3.42 µM; IC50 [20]: 1.53 ± 0.88 µM; IC50 ([13]; HCT-15, 72 h, MTT (Table 5), read-out: IC50 (μM) ± S.D.): 1.15 ± 0.43 µM; IC50 [21]: 5.99 ± 1.85 µM"
"CCCC(CCC)C(=O)[O][Pt]([Cl])([Cl])[O]C(=O)C(CCC)CCC.N.N [I, Ctc-Pt(NH3)2(C8H15O2)2Cl2]]",about 19 fold,910 ± 300 nM,1.25 ± 0.25 µM,1.5 fold,1120 ± 320 nM,highest inhibitory effect,~65%,250 ± 90 nM,2130 ± 450 nM,1150 nM,300 ± 100 nM,2430 ± 720 nM,0.81 ± 0.12 µM,~10 fold,1130 ± 140 nM,"fold more potent than cisplatin ([7]; A2780): 11 fold; Average tumor weight (mean ± SD, g) [8, 25]: 0.179 ± 0.07 g; Inhibition of tumor growth (%) [8, 25]: 68.21%; fold more potent than the mono-VPA monoacetato analog ([10]; average of the nine cell lines): 4.6 fold; average fold more potent than cisplatin [10]: 8 fold; fold more potent/effective than cisplatin ([11]; A2780cisR): 46 fold; resistance factor ([11]; ratio IC50 resistant (A2780cisR) / sensitive (A2780) cells): 1.2; times more effective than cisplatin ([13]; HCT-15): ~14 fold"
